Experimental data: patent US20070265245A1, “S-Mirtazapine For The Treatment Of Hot Flush” (N.V. Organon, priority 2004, published 2007)

Key:
Type in all cases: in vivo
ovariectomized rats [1] = test: Locomotor activity of ovariectomized rats, telemetry; conditions: for locomotor activity (decrease to): from the first treatment onwards, vehicle around 1.2 cpm
Method: (§1) The effect of the maleate salt of S-mirtazapine was measured in an animal model for hot flushes. The model is based on the observation that the drop in tail skin temperature at the transition from the rest to the active phase in rats is attenuated after ovariectomy. The locomotor activity of the rats was also measured.
(§2) Tail skin temperature of the rats was measured by use of the telemetry system from Data Sciences International (DSI), a division of Transoma Medical, Inc., USA. This system comprises implantable wireless transmitters (TA10TA-F40 W/TP), receivers (RPC-1 and RLA1020), a data exchange matrix (DEM), and a data acquisition and analysis system (DQ ART 2.2 silver version).
(§3) The S-mirtazapine maleate was dissolved in 0.9% saline with 5% mulgofen. Compound and vehicle were administered intraperitoneally. Sham placebo and ovariectomized(OVX)/placebo groups received 2 ml/kg/day saline and compound treated groups received 10, 30 or 100 mg/kg/day in a volume of 2 ml/kg/day. Here, the indicated amounts refer to the weight of the maleate salt of S-mirtazepine.
(§4) Female rats from the Crl:WU strain, weighing 225-250 g at arrival, were supplied by CPB Harlan, The Netherlands. Rats were housed individually in Macrolon™ cages (38×22×15 cm) with a sawdust bedding and “Enviro Dry™” as cage enrichment. The day after arrival the rats were ovariectomized or sham operated and the transmitter was implanted intraperitoneally under isoflurane aneasthesia. After surgery the rats were placed in a temperature controlled room (21.5±1° C.) with an adapted light/dark cycle (lights off 9:30 h a.m., lights on 7:30 h p.m.). They were allowed to recover from surgery and to adapt to the light/dark cycle for at least 2 weeks. Food and water were given ad libitum.
(§5) Treatment groups were randomized over the OVX groups. The rats were injected intraperitoneally with vehicle or S-mirtazapine maleate once a day at 11:00 a.m. for a period of 5 days. The tail skin temperature and the locomotor activity of the rats were measured every 5 minutes continuously, but the measurements between 12:00 and 02:00 pm (in which period the maximal effect of S-mirtazapine was observed) were used for calculations of the treatment effects. During this period the rats remained completely undisturbed. Before 9:30 am (the time the light turned off) the rats could be taken care of.
(§6) Body weights of the rats were determined before and after the treatment period. Data were expressed as mean ±S.E.M. unless otherwise specified. For testing statistical significance the Analysis of Variance (ANOVA) was used. The data were logarithmically transformed to normalize variations. A value of P<0.05 was considered to be significant.
Data were collected for each rat for 7 seconds every 5 minutes during two hours starting one hour after drug administration (11:00 a.m.). The mean tail skin temperature over this 2-h period was calculated for each rat. In addition, the group means were calculated together with the standard error of the mean (SEM). The tail skin temperature is expressed in degrees centigrade (°C.) and locomotor activity in counts per minutes (cpm).
The number of animals in the different test groups varied between 5-8.

[2] = Body weight of treated rats before and after treatment period; conditions: experiment 1, 10 mg/kg i.p., 5 days
Method: as §6

ovariectomized rats [3] = test: Tail skin temperature in ovariectomized rats (animal model for hot flushes), telemetry; conditions: for restoration of the attenuation of the OVX-induced drop in tail skin temperature: summary; for TST lower than the sham operated group: from day 2 onwards
Method: as §1, §2, §3, §4
The left and right flank and the rear end of the back above the tail implant of the rat were shaved. The rats were anaesthetized with isoflurane (FORENE®/1-chloro-2,2,2,-trifluorethyl-difluoromethyl-ether, Abbott). The operation area was disinfected with Hibicet® (1.5% m/v chloorhexidinedigluconaat and 1.5% m/v cetrimide). The rats were bilateral ovariectomized (OVX) or sham operated. The incision made in the right flank was also used to implant the transmitter in the peritoneal cavity. When closing the abdomen the transmitter was fixed to the abdominal muscles with stitches.
On the back of the rat in height of the hips, a small incision in the skin was made and the thermistor-tipped probe was led to the back of the rat. From here the probe was brought under the skin in the tail to about 2 cm from the base of the tail. The lead was fixed with a stitch at the musculus biceps femoris. To complete the operation the skin was closed with wound clips. Immediately after surgery the rats were treated with the analgesic buprenorphine 50 μg/kg sc (Temgesic®, Schering-Plough).
as §5, §6
Data were collected for each rat for 7 seconds every 5 minutes during two hours starting one hour after drug administration (11:00 a.m.). The mean tail skin temperature over this 2-h period was calculated for each rat. […]

SMILES: CN1CCN2c3ncccc3Cc3ccccc3[C@H]2C1.O=C(O)/C=C\C(=O)O [S-mirtazapine maleate]
- locomotor activity (ovariectomized rats [1]; 30 mg/kg, summary, effect not statistically significant): reduced
- locomotor activity compared to OVX placebo group (ovariectomized rats [1]; experiment 1, 10 mg/kg i.p.): no significant effect
- locomotor activity compared to sham operated placebo group (ovariectomized rats [1]; experiment 1, 10 mg/kg/day i.p., day 3): significant reduction
- effect on locomotor activity (ovariectomized rats [1]; experiment 2, 10 mg/kg/day, rest of experiment at level of placebo treated OVX rats): only an effect on locomotor activity after the first treatment
- locomotor activity at the end of the treatment period (ovariectomized rats [1]; experiment 2, 30 mg/kg i.p.): about 0.5 cpm
- drop in locomotor activity (ovariectomized rats [1]; experiment 2, 30 mg/kg i.p., after 5 days treatment): 50%
- locomotor activity (decrease to) (ovariectomized rats [1]; experiment 2, 30 mg/kg i.p.): about 0.5 cpm
- locomotor activity at the end of the treatment period (ovariectomized rats [1]; experiment 2, 100 mg/kg i.p.): increased to the level of the vehicle treated rats
- locomotor activity (decrease to) (ovariectomized rats [1]; experiment 2, 100 mg/kg i.p.): about 0.5 cpm
- locomotor activity after 5 days treatment compared to the OVX placebo group (ovariectomized rats [1]; experiment 2, any dose group (10, 30, 100 mg/kg)): No statistically significant effect
- effect on body weight (BW) [2]: no significant effect
- restoration of the attenuation of the OVX-induced drop in tail skin temperature (ovariectomized rats [3]; 10 mg/kg i.p., OVX rats): not
- restoration of the attenuation of the OVX-induced drop in tail skin temperature (ovariectomized rats [3]; 30 mg/kg i.p., OVX rats): restored
- effect against hot flush (conclusion) (ovariectomized rats [3]; 30 mg/kg in rats): effect against hot flush
- effect against hot flush (conclusion) (ovariectomized rats [3]; 100 mg/kg in rats): effect against hot flush
- increase in TST after the first treatment day (ovariectomized rats [3]; experiment 1, 10 mg/kg/day i.p., OVX rats): approximately 2 °C
- effect on tail skin temperature on day 5 (ovariectomized rats [3]; experiment 1, 10 mg/kg/day i.p., day 5): no effect
- TST after the end of treatment (ovariectomized rats [3]; experiment 1, 10 mg/kg/day i.p., all groups returned to normal values for OVX rats): about 29 °C
- TST during the treatment period (ovariectomized rats [3]; experiment 1, 10 mg/kg/day i.p., compared to sham/placebo and compared to OVX/placebo at day 4): significantly higher level
- tail skin temperature compared to the OVX rats after 5 consecutive days (ovariectomized rats [3]; experiment 2, 10 mg/kg): no effect
- increase in TST after the first treatment (ovariectomized rats [3]; experiment 2, 10 mg/kg/day i.p.): 1-3 °C
- TST during the treatment period compared to the OVX rats (ovariectomized rats [3]; experiment 2, 10 mg/kg/day i.p., day 2 and 3): significantly higher level
- TST after end of treatment (ovariectomized rats [3]; experiment 2, 10 mg/kg/day i.p., returned to normal TST values of OVX rats): 28-29 °C
- TST after the end of treatment (ovariectomized rats [3]; experiment 2, 30 mg/kg i.p.): returned to normal values of OVX rats
- TST compared to the sham operated group after 5 consecutive days (ovariectomized rats [3]; experiment 2, 30 mg/kg i.p.): statistically significantly below
- restoration of the fall in TST (ovariectomized rats [3]; experiment 2, 30 mg/kg i.p.): significantly restored
- tail skin temperature compared to the OVX group after 5 consecutive days (ovariectomized rats [3]; experiment 2, 30 mg/kg i.p.): significant decrease
- TST versus sham operated placebo group on day 5 (ovariectomized rats [3]; experiment 2, 30 mg/kg i.p., day 5): statistically significantly different
- TST lower than the sham operated group (ovariectomized rats [3]; experiment 2, 30 mg/kg i.p.): 2-4 °C
- TST after the end of treatment (ovariectomized rats [3]; experiment 2, 100 mg/kg i.p.): stayed up to 2 days after the end of treatment at a lower level
- restoration of the fall in TST (ovariectomized rats [3]; experiment 2, 100 mg/kg i.p.): significantly restored
- tail skin temperature compared to the OVX group after 5 consecutive days (ovariectomized rats [3]; experiment 2, 100 mg/kg i.p.): significant decrease
- TST lower than the sham operated group (ovariectomized rats [3]; experiment 2, 100 mg/kg i.p.): 2-4 °C
